Consider nine compounds from PubChem BioAssay AID2060625 (Molecular Pharmacology Branch, DTP, NCI, 2025).

Values joined by “and” are separate entries in the source; they are usually repeats but may differ in a detail not shown here. Equal values may be shown once. A value given as a limit tells only on which side of the number the result lay.

The subject of this experiment is 186277-243-T-J2-PDC spheroids with HUVEC/MSC, viability. Kind of experiment: Anticancer human tumor 186277-243-T-J2-PDC patient-derived colon adenocarcinoma cell line growth inhibition [CLK]. Particulars: for viability, T/C: stronger effect = lower value. From the text:
A high-throughput screen of multi-cell type tumor spheroids was designed to identify active combinations of […] and targeted small molecules. Complex spheroids include a stromal component modeled by human endothelial cells (HUVEC) and fibroblasts modeled by human mesenchymal stem cells (MSCs). The concentration ranges selected for each drug and investigational agent were based upon clinically achievable concentrations if the clinical Cmax of the agent was known.
Compounds. The drugs and investigational agents: cirtuvivint (SM08502; NSC835563), CC-671 (NSC850746), vemurafenib (NSC761431), tapotoclax (NSC804041), sotorasib (NSC818433), adagrasib (NSC831453), MRTX-1133 (NSC836407), BAY2416964 (NSC825713), copanlisib (NSC816437), inavolisib (NSC800729), abemaciclib (NSC768073), osimertinib (NSC779217), entinostat (NSC756642), eltanexor (KPT-8602, NSC794443), venetoclax (NSC766270), ceralasertib (NSC777638), bortezomib (NSC756655), olaparib (NSC753686), talazoparib (NSC767125), alisertib (NSC759677), peposertib (NSC802822), gemcitabine (NSC613327), 5-fluorouracil (NSC19893), SN-38 (NSC673596), oxaliplatin (NSC266046), paclitaxel (NSC125973), and doxorubicin (NSC123127), were obtained from the National Cancer Institute (NCI) Developmental Therapeutics Program Chemical Repository. The FDA-approved anticancer drug set is available from the Developmental Therapeutics Program at https://dtp.cancer.gov/organization/dscb/obtaining/available plates.htm. […] The stock solutions were prepared in dimethyl sulfoxide (DMSO, Sigma-Aldrich, St. Louis, MO, cat. D2650), except for the platinum complexes which were prepared in saline (Quality Biological, Gaithersburg, MD, cat. 114-055-101), at 800-fold the tested concentration and stored at -70 degrees C prior to their use. All drugs and investigational agents were tested over a range starting from a high concentration at or near the clinical Cmax and decreasing in half-log increments. If the clinical Cmax for an agent had not been determined, the highest concentration tested was 10 microM.
Cell Culture. All cells were maintained in an incubator at 37 degrees C and 5% CO2 with 95% humidity. The PDC lines were cultured according to standard operating procedures established by the NCI PDMR. Briefly, all PDCs were thawed and cultured in Matrigel-coated flasks prepared with a working solution of 1X Ham's F-12 nutrient mix, without supplementation (Invitrogen, Waltham, MA, cat. 11765054), 100 U/mL penicillin-streptomycin (Invitrogen, cat. 15140122), and 2.5% Matrigel (Corning Inc., Corning, NY, cat. 354248) for the first three passages. The 947758-054-R-J2-PDC line was cultured in 6B/Colon 1A media, which includes advanced DMEM/F-12 (Thermo Fisher Scientific, cat. 12634028), 10 mM HEPES (Thermo Fisher Scientific, cat. 15630080), 1X GlutaMAX supplement (Thermo Fisher Scientific, cat. 35050061), 0.1 mg/mL primocin (InvivoGen, cat. ant-pm-2), 10% defined fetal bovine serum, heat inactivated (HyClone Laboratories Inc., cat. SH30070.03HI), 1.25 mM N-Acetyl-L-cysteine (Sigma-Aldrich, cat. A9165), 10 mM nicotinamide (Sigma-Aldrich, cat. N0636), 1X B-27 supplement (Thermo Fisher Scientific, cat. 17504044), 1X N-2 supplement (Thermo Fisher Scientific, cat. 17502048), and 10 microM Y-27632 dihydrochloride (Tocris Bioscience, cat. 1254). The 876862-298-R-J1-PDC was cultured in 6E media, which includes all 6B/Colon 1A media components plus 50% L-WRN conditioned media (ATCC, cat. CRL-3276), 50 ng/mL recombinant human EGF recombinant protein (hEGF; Thermo Fisher Scientific, cat. PHG0311), 10 ng/mL recombinant human fibroblast growth factor 10 (hGFG-10; PeproTech, cat. 100-26), 1 ng/mL recombinant human fibroblast growth factor 2 (hFGF-2; PeproTech, cat. 100-18B), and 1 µM prostaglandin E2 (PGE2; Tocris, cat. 2296). The 227483-062-R1-J1-PDC line was cultured in Panc media, containing all 6E components except hFGF-2, with the addition of 500 nM SB-431542 (Selleckchem, cat. S1067) and 10 nM gastrin (Tocris, cat. 3006). […]
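Further: compound exposure lasted seven days before readout.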
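Wherever viability, T/C is given: 100% = DMSO vehicle control wells.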

One may read the viability, T/C as the ratio of treated to control. A word on the IC50: it is the concentration that gives 50% inhibition. On to `CC(=O)O[C@H]1C(=O)[C@@]2(C)[C@H]([C@H](OC(=O)c3ccccc3)[C@]3(O)C[C@H](OC(=O)[C@H](O)[C@@H](NC(=O)c4ccccc4)c4ccccc4)C(C)=C1C3(C)C)[C@]1(OC(C)=O)CO[C@@H]1C[C@@H]2O`, for which the viability, T/C reads like this: (compound 0.0316 µM) 25.2% and 16.5%; (compound 0.1 µM) 12.1% and 8.36%; (compound 0.316 µM) 11.6% and 7.98%; (compound 1 µM) 10.8% and 6.74%; (compound 3.16 µM) 8.76% and 8.77%; (compound 10 µM) 10.4% and 7.1%. The IC50 (curve of compound) is below 0.0316 µM.

For `CN1CCN(c2cc(C(=O)Nc3cc4cc(-c5cnn(C)c5)ccc4cn3)ccn2)CC1`, the viability, T/C (compound 0.316 µM) is 23.7% [middle of 11 runs]; the viability, T/C (compound 1 µM) is 0.99% [middle of 10 runs]; the viability, T/C (compound 3.16 µM) is 1.22% [middle of 11 runs]; the viability, T/C (compound 10 µM) is 1.7% [middle of 11 runs]. Further, where the note is “compound alone, run of 08/14/2023”, the IC50 is 192 nM [middle of 11 runs].

For `CNC(=O)c1ccc(Nc2nc(OC3CCCC3)c3c(-c4ccc5nc(C)oc5c4)c[nH]c3n2)c(OC)c1`, the viability, T/C reads like this: (compound 0.1 µM) 67.9% [middle of 12 runs]; (compound 0.316 µM) 46.2% [middle of 12 runs]; (compound 1 µM) 33% [middle of 12 runs]; (compound 3.16 µM) 32.1% [middle of 12 runs]; (compound 10 µM) 33.9% [middle of 11 runs]. Also, for the setting “compound alone, run of 08/15/2023”, the IC50 was 241 nM [middle of 12 runs].

Consider `COc1ccc([C@@H](O)c2cc(-c3ncnc4cc(N5CCOCC5)ccc34)c(F)cc2Cl)nn1`, for which the viability, T/C reads like this: (compound 0.0316 µM) 95.1%; (compound 0.1 µM) 96.1%; (compound 0.316 µM) 117%; (compound 1 µM) 85.1%; (compound 3.16 µM) 87.2%; (compound 10 µM) 49.2%. For the same compound, the IC50 (curve of compound) amounted to 9.91 µM.

`COc1cccc2c1C(=O)c1c(O)c3c(c(O)c1C2=O)CC(O)(C(=O)CO)CC3OC1CC(N)C(O)C(C)O1` (stereo not given): the viability, T/C reads like this: (compound 0.0316 µM) 127%; (compound 0.1 µM) 76.1%; (compound 0.316 µM) 20.6%; (compound 1 µM) 0.4%; (compound 3.16 µM) 1.81%; (compound 10 µM) 2.31%. Also, where the note is “curve of compound”, the IC50 came out at 0.171 µM.

As to `Nc1ccn(C2OC(CO)C(O)C2(F)F)c(=O)n1` (stereo not given), the viability, T/C by setting is: (compound 0.0316 µM) 15.6% and 11.9%; (compound 0.1 µM) 15.7% and 12.4%; (compound 0.316 µM) 15.3% and 12.4%; (compound 1 µM) 17.3% and 13.5%; (compound 3.16 µM) 19% and 14%; (compound 10 µM) 20.5% and 13.1%. In addition, the IC50 (curve of compound) was below 0.0316 µM.

As to `O=C(c1cc(Cc2n[nH]c(=O)c3ccccc23)ccc1F)N1CCN(C(=O)C2CC2)CC1`, the viability, T/C is, setting by setting: (compound 0.0316 µM) 102%; (compound 0.1 µM) 90% and 99.4%; (compound 0.316 µM) 101% and 109%; (compound 1 µM) 114% and 110%; (compound 3.16 µM) 118% and 119%; (compound 10 µM) 126% and 103%. For the same compound, for the setting “curve of compound”, the IC50 was above 10 µM.

With `O=c1[nH]cc(F)c(=O)[nH]1`, the viability, T/C runs as follows: (compound 0.0316 µM) 99.2% and 100%; (compound 0.1 µM) 84.2% and 98.6%; (compound 0.316 µM) 99% and 94.5%; (compound 1 µM) 93.7% and 97%; (compound 3.16 µM) 108% and 102%; (compound 10 µM) 65.2% and 63%. For the same compound, where the note is “curve of compound”, the 50% inhibitory concentration (IC50) is above 10 µM.

Consider `CCCS(=O)(=O)Nc1ccc(F)c(C(=O)c2c[nH]c3ncc(-c4ccc(Cl)cc4)cc23)c1F` + CN1CCN(c2cc(C(=O)Nc3cc4cc(-c5cnn(C)c5)ccc4cn3)ccn2)CC1, for which the IC50 is, setting by setting: (curve of first compound, second compound 0.0316 µM) above 10 µM; (curve of first compound, second compound 0.1 µM) above 10 µM; (curve of first compound, second compound 0.316 µM) below 0.0316 µM; (curve of first compound, second compound 1 µM) below 0.0316 µM; (curve of first compound, second compound 3.16 µM) below 0.0316 µM; (curve of first compound, second compound 10 µM) below 0.0316 µM. Besides, the viability, T/C runs as follows: (second compound 0.0316 µM, first compound 0.0316 µM) 109%; (second compound 0.0316 µM, first compound 0.1 µM) 104%; (second compound 0.0316 µM, first compound 0.316 µM) 103%; (second compound 0.0316 µM, first compound 1 µM) 97.4%; (second compound 0.0316 µM, first compound 3.16 µM) 113%; (second compound 0.0316 µM, first compound 10 µM) 89.6%. Besides, the viability, T/C is 87.4% (second compound 0.1 µM, first compound 0.0316 µM); 82.3% (second compound 0.1 µM, first compound 0.1 µM); 86.7% (second compound 0.1 µM, first compound 0.316 µM); 99.4% (second compound 0.1 µM, first compound 1 µM); 95.9% (second compound 0.1 µM, first compound 3.16 µM); 69.2% (second compound 0.1 µM, first compound 10 µM). The viability, T/C reads like this: (second compound 0.316 µM, first compound 0.0316 µM) 30.5%; (second compound 0.316 µM, first compound 0.1 µM) 30.9%; (second compound 0.316 µM, first compound 0.316 µM) 31.8%; (second compound 0.316 µM, first compound 1 µM) 32.1%; (second compound 0.316 µM, first compound 3.16 µM) 22.5%; (second compound 0.316 µM, first compound 10 µM) 20.1%. Further, the viability, T/C is 0.48% (second compound 1 µM, first compound 0.0316 µM); 0.83% (second compound 1 µM, first compound 0.1 µM); 1.17% (second compound 1 µM, first compound 0.316 µM); 1.25% (second compound 1 µM, first compound 1 µM); 0.57% (second compound 1 µM, first compound 3.16 µM); 0.46% (second compound 1 µM, first compound 10 µM). For the same compound, the viability, T/C runs as follows: (second compound 3.16 µM, first compound 0.0316 µM) 1.11%; (second compound 3.16 µM, first compound 0.1 µM) 1.22%; (second compound 3.16 µM, first compound 0.316 µM) 2.84%; (second compound 3.16 µM, first compound 1 µM) 1.64%; (second compound 3.16 µM, first compound 3.16 µM) 2.61%; (second compound 3.16 µM, first compound 10 µM) 1.65%. Moreover, the viability, T/C (second compound 10 µM, first compound 0.0316 µM) was 0.65%; the viability, T/C (second compound 10 µM, first compound 0.1 µM) was 0.72%; the viability, T/C (second compound 10 µM, first compound 0.316 µM) is 1.61%; the viability, T/C (second compound 10 µM, first compound 1 µM) is 0.95%; the viability, T/C (second compound 10 µM, first compound 3.16 µM) was 1.27%; the viability, T/C (second compound 10 µM, first compound 10 µM) was 0.74%.
